The assay addresses T1, c-Met (Homo sapiens, UniProt P08581).
T1 construct: A PCR product covering residues 1058-1365 of c-Met (c-Met kinase domain) is generated; made in house; host or cells: baculovirus-infected (insect) cells
Nature of the assay: c-Met receptor assay (HTRF kinase assay with GST-cMet (P), gastrin and ATP). Type of assay: biochemical. The note with it: illustrative activity values. The procedure:
Phosphorylation of the purified GST-cMET is performed by incubating the protein for 3 h at RT with the following:
After incubation, the solution is concentrated in a Vivaspin 20 ml Concentrator to a volume less than 2.00 ml. The solution is applied to the same Superdex 75 16/60 column used above after re-equilibration. The GST-cMET is eluted as described above. The elution fractions corresponding to the first eluted peak on the chromatogram are run on a 12% Tris Glycine gel, as above, to identify the fractions with GST-cMET. Fractions are pooled and the OD280 is read with the column buffer used as the blank.
A Kinase reaction Buffer is prepared as follows:
When the assay is carried out, freshly add:
The HTRF buffer contains:
1. Dilute GST-cMet (P) enzyme in kinase buffer as follows:
2. Assay plate preparation:
Then incubate the plate at RT for 30 min.
3. Prepare Gastrin and ATP working solution in kinase reaction buffer as follows:
Use Biomek FX to add 20 μl ATP and Gastrin working solution to the assay plate to start reaction, incubate the plate at RT for 1 h.
KM ATP, KM gastrin for various enzymes were determined by HTRF/^33P labeling and HTRF methods.
Cloning, Expression and Purification of c-Met Kinase Domain
Alternative Purification of Human GST-cMET from Baculovirus Cells
The resin is washed with 10 column volumes (100 mL) of Lysis Buffer. […] The elution is collected as 15 mL fractions. Aliquots of the elution fractions are run on SDS PAGE (12% Tris Glycine gel, Invitrogen, #EC6005BOX). The gel is stained with 0.25% Coomassie Blue stain. Fractions with GST-cMET are concentrated with a Vivaspin 20 mL Concentrator (#VS2002; 10.00 MW cutoff) to a final volume less than 2.0 ml. […] The GST-cMET is eluted with an isocratic run of the above buffer, with the eluent collected in 1.0 mL fractions. Fractions with significant OD280 readings are run on another 12% Tris Glycine gel. The peak tubes with GST-cMET are pooled and the OD280 is read with the column buffer listed above as the blank buffer. […]
T1 sequence (P08581 1058-1365): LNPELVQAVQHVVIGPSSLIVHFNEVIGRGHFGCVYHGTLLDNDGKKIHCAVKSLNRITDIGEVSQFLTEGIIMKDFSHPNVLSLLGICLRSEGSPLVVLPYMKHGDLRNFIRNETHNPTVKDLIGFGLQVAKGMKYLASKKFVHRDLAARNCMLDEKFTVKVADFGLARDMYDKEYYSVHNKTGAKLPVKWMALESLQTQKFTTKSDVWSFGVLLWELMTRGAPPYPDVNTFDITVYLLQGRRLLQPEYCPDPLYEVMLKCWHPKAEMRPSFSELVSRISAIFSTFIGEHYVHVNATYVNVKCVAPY
Compound `Cc1cnc(Nc2ccc(Oc3ccnc(NC(=O)N4CCOCC4)c3)c(F)c2)c(C(=O)Nc2ccccc2)c1` [Example 1, N-(4-(2-fluoro-4-(5-methyl-3-(phenylcarbamoyl)pyridin-2-ylamino)phenoxy)pyridin-2-yl)morpholine-4-carboxamide] gave a Ki of 1.7 nM. Consider `COc1ccc2c(Oc3ccc(Nc4ncc(-c5ccsc5)cc4C(=O)Nc4ccccc4)cc3F)ccnc2c1` [Example 4, 2-(3-fluoro-4-(7-methoxyquinolin-4-yloxy)phenylamino)-N-phenyl-5-(thiophen-3-yl)nicotinamide], for which the affinity, expressed as Ki, was 4.7 nM. For `O=C(Nc1ccccc1)c1cccnc1Nc1ccc(Oc2ccnc(NC(=O)N3CCCC3)c2)c(F)c1` [Example 5, 2-(3-fluoro-4-(2-(pyrrolidine-1-carboxamido)pyridin-4-yloxy)phenylamino)-N-phenylnicotinamide] the value was 0.6 nM; for `COc1ccccc1NC(=O)c1cccnc1Nc1ccc(Oc2ccnc3cc(OCc4ccccc4)c(OC)cc23)c(F)c1` [Example 10, 2-(4-(7-(benzyloxy)-6-methoxyquinolin-4-yloxy)-3-fluorophenylamino)-N-(2-methoxyphenyl)nicotinamide], 40.5 nM.

In the case of `COc1cc2c(Oc3ccc(Nc4ncccc4C(=O)NCc4ccccc4)cc3)ccnc2cc1OCCCN1CCOCC1` [Example 15, N-benzyl-2-(4-(6-methoxy-7-(3-morpholinopropoxy)quinolin-4-yloxy)phenylamino)nicotinamide], the Ki stood at 4.8 nM. For `COc1cc2nccc(Oc3ccc(Nc4ncccc4C(=O)NC(C)c4nccs4)cc3)c2cc1OC` (stereo not drawn) [Example 24, 2-(4-(6,7-dimethoxyquinoline-4-yloxy)phenylamino)-N-(1-(thiazol-2-yl)ethyl)nicotinamide] the value was 136 nM. Compound `CNC(=O)c1cccnc1Nc1ccc(Oc2ccnc3cc(OC)c(OC)cc23)cc1` [Example 26, 2-(4-(6,7-dimethoxyquinoline-4-yloxy)phenylamino)-N-methylnicotinamide] had a Ki of 498 nM. For `COc1cc2nccc(Oc3ccc(Nc4ncccc4C(=O)NCc4nccs4)cc3)c2cc1OC` [Example 27, 2-(4-(6,7-dimethoxyquinoline-4-yloxy)phenylamino)-N-(thiazol-2-ylmethyl)nicotinamide] the value was 180 nM. For `COc1cc2nccc(Oc3ccc(Nc4ncccc4C(=O)NCc4ncc[nH]4)cc3)c2cc1OC` [Example 28, N-((1H-imidazol-2-yl)methyl)-2-(4-(6,7-dimethoxyquinoline-4-yloxy)phenylamino)nicotinamide] the value was 576 nM; for `COc1cc2nccc(Oc3ccc(Nc4ncccc4C(=O)Nc4ncco4)cc3)c2cc1OC` [Example 29, 2-(4-(6,7-dimethoxyquinoline-4-yloxy)phenylamino)-N-(oxazol-2-yl)nicotinamide], 196 nM; for `CSc1ncc(C(=O)Nc2ccccc2)c(Nc2ccc(Oc3ccnc(NC(=O)N4CCCC4)c3)c(F)c2)n1` [Example 30, 4-(3-fluoro-4-(2-(pyrrolidine-1-carboxamido)pyridin-4-yloxy)phenylamino)-2-(methylthio)-N-phenylpyrimidin-5-carboxamide], 0.2 nM. On to `COc1ccc2c(Oc3ccc(Nc4nccnc4C(=O)Nc4ccccc4)cc3F)ccnc2c1` [Example 36, 3-(3-fluoro-4-(7-methoxyquinolin-4-yloxy)phenylamino)-N-phenylpyrazine-2-carboxamide], for which the affinity, expressed as Ki, was 29.3 nM.

By Ki is commonly meant a measure of affinity in units of concentration, obtained from inhibition or displacement. A low value points to higher affinity.

These data come from US7915287B2, “Substituted heterocycles and methods of use” (Amgen Inc., priority 2006, dated 2011).
